Measurements from patent US11767310B2, “Nicotinamide RIPK1 inhibitors” (AbbVie Inc., priority 2021, dated 2023).
Read-outs that look alike come from different tables or passages of the source.

Tests used:
Assay in all cases: Kinase binding screen
Conditions in all cases: read-out: Percent Control at 100 nM Compound Concentration
SYK = SYK (Homo sapiens (Human), UniProt P43405)
AMPK-alpha2 = AMPK-alpha2 (Homo sapiens (Human), UniProt P54646)
DMPK = DMPK (Homo sapiens (Human), UniProt Q09013)
EPHA5 = EPHA5 (Homo sapiens (Human), UniProt P54756)
ERK5 = ERK5 (Homo sapiens (Human), UniProt Q13164)
EPHA1 = EPHA1 (Homo sapiens (Human), UniProt P21709)
[1] = target: RSK3(Kin.Dom.1-N-terminal) (Homo sapiens (Human), UniProt Q15349)
SGK2 = SGK2 (Homo sapiens (Human), UniProt Q9HBY8)
SNARK = SNARK (Homo sapiens (Human), UniProt Q9H093)
ANKK1 = ANKK1 (Homo sapiens (Human), UniProt Q8NFD2)
[2] = target: ABL1(F317I)-nonphosphorylated (Homo sapiens (Human), UniProt P00519, F317I)
RET = RET (Homo sapiens (Human), UniProt P07949)
TAOK1 = TAOK1 (Homo sapiens (Human), UniProt Q7L7X3)
RIOK3 = RIOK3 (Homo sapiens (Human), UniProt O14730)
MET(Y1235D) = MET(Y1235D) (Homo sapiens (Human), UniProt P08581, Y1235D)
[3] = target: JAK1(JH1domain-catalytic) (Homo sapiens (Human), UniProt P23458)
IGFIR = IGFIR (Homo sapiens (Human), UniProt P08069)
EGFR(S752-I759del) = EGFR(S752-I759del) (Homo sapiens (Human), UniProt P00533, DEL752-759)
PIK3CA(E545A) = PIK3CA(E545A) (Homo sapiens (Human), UniProt P42336, E545A)
PIK3CB = PIK3CB (Homo sapiens (Human), UniProt P42338)
CSNK2A2 = CSNK2A2 (Homo sapiens (Human), UniProt P19784)
MET(M1250T) = MET(M1250T) (Homo sapiens (Human), UniProt P08581, M1250T)
LKB1 = LKB1 (Homo sapiens (Human), UniProt Q15831)
LATS1 = LATS1 (Homo sapiens (Human), UniProt O95835)
MKNK2 = MKNK2 (Homo sapiens (Human), UniProt Q9HBH9)
TNNI3K = TNNI3K (Homo sapiens (Human), UniProt Q59H18)

Sequence of ERK5 (Q13164 whole entry): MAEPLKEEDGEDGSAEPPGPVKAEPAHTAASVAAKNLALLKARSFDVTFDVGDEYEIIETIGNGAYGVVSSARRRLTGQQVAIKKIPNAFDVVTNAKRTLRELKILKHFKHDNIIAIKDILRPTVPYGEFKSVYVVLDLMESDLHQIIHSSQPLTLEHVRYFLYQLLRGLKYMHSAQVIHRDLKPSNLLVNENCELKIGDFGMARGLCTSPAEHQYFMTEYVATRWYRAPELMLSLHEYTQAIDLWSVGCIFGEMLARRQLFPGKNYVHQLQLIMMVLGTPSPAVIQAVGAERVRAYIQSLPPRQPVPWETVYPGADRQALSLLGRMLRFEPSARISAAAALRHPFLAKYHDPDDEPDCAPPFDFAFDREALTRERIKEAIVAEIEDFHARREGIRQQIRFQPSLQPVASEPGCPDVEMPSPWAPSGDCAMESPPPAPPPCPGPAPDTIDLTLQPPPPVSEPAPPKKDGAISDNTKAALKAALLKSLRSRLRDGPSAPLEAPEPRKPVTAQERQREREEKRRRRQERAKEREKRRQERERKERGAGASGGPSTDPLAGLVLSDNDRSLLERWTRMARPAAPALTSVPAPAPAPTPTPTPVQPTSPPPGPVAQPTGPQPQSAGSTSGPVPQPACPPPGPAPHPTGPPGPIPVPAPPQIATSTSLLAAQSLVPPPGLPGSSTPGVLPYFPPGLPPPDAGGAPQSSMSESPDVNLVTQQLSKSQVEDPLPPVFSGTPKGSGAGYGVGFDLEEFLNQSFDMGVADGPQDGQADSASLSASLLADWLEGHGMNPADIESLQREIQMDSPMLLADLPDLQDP
Sequence of EPHA5 (P54756 25-1037): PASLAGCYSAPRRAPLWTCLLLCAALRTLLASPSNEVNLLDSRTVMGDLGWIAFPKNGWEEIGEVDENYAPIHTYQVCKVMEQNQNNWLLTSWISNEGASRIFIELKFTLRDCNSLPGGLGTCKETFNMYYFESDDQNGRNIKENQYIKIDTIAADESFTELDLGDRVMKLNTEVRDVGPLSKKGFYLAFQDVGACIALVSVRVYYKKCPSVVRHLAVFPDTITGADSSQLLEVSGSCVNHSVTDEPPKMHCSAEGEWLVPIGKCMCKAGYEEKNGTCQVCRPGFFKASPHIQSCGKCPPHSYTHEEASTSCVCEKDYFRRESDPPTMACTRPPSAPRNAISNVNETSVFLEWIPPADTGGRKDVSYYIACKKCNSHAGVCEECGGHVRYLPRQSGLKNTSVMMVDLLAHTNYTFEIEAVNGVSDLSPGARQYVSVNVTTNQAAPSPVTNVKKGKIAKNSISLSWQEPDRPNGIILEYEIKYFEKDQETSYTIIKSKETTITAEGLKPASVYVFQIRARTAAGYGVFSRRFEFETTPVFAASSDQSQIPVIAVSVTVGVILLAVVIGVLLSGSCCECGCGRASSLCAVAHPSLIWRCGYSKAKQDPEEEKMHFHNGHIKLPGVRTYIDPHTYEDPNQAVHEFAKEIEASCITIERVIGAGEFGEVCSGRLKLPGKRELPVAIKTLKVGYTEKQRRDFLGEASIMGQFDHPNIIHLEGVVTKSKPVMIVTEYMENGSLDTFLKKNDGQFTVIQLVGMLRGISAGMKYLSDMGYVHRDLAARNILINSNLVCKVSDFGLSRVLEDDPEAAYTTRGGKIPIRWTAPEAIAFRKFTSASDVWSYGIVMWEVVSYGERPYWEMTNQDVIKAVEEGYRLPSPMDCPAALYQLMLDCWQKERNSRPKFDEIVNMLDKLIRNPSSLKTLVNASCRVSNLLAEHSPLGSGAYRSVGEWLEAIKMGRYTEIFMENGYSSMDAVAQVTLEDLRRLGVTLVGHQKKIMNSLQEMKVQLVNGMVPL
Sequence of MKNK2 (Q9HBH9 whole entry): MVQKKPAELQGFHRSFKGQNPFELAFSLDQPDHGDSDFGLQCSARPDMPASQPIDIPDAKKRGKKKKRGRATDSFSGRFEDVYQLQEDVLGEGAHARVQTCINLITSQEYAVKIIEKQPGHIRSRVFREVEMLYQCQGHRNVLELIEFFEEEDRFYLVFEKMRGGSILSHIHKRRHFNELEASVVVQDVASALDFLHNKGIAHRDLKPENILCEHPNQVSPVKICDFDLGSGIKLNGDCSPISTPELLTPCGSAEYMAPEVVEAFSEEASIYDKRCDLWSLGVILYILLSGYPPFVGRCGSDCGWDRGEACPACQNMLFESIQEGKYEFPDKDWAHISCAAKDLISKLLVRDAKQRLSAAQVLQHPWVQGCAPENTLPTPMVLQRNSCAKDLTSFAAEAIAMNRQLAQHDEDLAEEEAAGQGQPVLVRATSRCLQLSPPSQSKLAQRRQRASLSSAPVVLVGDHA
Sequence of MET(Y1235D) (P08581 25-1390 Y1235D): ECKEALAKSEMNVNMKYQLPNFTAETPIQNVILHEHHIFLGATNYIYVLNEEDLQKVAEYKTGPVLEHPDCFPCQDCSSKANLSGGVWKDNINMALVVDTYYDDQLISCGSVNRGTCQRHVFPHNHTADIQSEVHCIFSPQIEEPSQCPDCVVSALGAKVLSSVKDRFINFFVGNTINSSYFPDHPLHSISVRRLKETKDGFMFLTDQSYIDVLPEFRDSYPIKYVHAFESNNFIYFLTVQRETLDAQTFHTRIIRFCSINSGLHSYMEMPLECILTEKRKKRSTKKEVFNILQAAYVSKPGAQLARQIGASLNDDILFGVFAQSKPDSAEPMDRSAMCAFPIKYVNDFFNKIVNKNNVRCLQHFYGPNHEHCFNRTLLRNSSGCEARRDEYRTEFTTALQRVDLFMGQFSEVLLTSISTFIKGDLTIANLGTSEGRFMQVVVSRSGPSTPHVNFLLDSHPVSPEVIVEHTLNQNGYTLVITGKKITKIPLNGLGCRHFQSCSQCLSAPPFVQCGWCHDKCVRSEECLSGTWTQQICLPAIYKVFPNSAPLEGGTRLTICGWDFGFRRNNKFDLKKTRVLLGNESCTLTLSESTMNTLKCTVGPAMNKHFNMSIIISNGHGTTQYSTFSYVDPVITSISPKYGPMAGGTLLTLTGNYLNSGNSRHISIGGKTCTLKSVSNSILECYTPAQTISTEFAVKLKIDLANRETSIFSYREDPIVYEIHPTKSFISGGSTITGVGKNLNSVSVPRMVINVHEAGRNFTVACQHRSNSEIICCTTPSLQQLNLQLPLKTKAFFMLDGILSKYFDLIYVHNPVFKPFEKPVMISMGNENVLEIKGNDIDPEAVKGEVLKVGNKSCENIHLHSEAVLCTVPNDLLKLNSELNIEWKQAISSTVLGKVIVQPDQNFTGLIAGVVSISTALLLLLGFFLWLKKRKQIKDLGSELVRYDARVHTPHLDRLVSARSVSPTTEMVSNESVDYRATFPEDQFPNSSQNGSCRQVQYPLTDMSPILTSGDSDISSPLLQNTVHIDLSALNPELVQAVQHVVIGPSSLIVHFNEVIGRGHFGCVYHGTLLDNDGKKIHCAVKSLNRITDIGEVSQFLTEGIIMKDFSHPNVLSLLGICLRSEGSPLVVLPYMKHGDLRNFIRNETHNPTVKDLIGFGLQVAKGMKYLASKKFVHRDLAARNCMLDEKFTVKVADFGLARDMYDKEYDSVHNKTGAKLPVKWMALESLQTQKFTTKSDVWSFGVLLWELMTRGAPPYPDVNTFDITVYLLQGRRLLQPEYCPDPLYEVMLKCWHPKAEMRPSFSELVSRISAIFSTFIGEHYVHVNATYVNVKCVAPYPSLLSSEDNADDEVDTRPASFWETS
Sequence of SNARK (Q9H093 whole entry): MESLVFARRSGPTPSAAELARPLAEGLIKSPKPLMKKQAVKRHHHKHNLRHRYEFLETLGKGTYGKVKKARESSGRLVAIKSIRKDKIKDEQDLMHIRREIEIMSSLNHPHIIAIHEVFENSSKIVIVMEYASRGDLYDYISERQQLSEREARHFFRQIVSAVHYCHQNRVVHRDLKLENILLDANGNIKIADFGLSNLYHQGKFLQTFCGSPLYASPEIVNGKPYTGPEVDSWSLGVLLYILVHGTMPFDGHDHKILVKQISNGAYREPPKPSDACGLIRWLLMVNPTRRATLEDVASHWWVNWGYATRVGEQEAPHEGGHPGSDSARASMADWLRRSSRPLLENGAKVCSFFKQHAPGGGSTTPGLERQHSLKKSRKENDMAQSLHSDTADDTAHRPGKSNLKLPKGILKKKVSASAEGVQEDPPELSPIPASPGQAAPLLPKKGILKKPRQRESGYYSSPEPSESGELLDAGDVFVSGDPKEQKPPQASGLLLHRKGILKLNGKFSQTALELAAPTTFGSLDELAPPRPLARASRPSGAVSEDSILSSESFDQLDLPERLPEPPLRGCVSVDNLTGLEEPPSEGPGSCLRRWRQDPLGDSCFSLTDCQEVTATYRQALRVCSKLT
Sequence of RSK3(Kin.Dom.1-N-terminal) (Q15349 59-318): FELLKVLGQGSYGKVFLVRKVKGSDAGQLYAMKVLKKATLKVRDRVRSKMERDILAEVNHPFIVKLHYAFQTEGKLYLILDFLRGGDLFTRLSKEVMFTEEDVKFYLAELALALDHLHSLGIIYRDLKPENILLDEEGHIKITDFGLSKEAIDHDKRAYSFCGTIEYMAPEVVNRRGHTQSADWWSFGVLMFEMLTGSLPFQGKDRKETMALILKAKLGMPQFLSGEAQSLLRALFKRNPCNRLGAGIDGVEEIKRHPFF
Sequence of SGK2 (Q9HBY8 whole entry): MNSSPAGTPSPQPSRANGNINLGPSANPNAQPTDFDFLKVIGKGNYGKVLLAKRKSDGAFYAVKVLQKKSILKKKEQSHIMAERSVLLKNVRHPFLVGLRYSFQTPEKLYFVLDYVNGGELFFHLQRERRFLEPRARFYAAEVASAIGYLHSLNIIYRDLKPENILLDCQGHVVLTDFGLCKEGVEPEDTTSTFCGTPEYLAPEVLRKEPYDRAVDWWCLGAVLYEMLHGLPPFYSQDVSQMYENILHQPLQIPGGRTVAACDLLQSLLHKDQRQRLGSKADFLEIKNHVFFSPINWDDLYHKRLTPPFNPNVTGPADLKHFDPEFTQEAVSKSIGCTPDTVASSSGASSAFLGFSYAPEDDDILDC

SMILES: CN(C[C@@H](O)Cc1ccccc1)C(=O)c1cncc(C#Cc2cnn(C(F)F)c2)c1 [Example 2, (S)-5-((1-(difluoromethyl)-1H-pyrazol-4-yl)ethynyl)-N-(2-hydroxy-3-phenylpropyl)-N-methylnicotinamide]
- remaining activity at 0.1 µM (SYK; SYK): 97%
- remaining activity at 0.1 µM (AMPK-alpha2; AMPK-alpha2): 89%
- remaining activity at 0.1 µM (DMPK; DMPK): 100%
- remaining activity at 0.1 µM (EPHA5; EPHA5): 100%
- remaining activity at 0.1 µM (ERK5; ERK5): 100%
- remaining activity at 0.1 µM (EPHA1; EPHA1): 100%
- remaining activity at 0.1 µM ([1]; RSK3(Kin.Dom.1-N-terminal)): 97%
- remaining activity at 0.1 µM (SGK2; SGK2): 100%
- remaining activity at 0.1 µM (SNARK; SNARK): 99%
- remaining activity at 0.1 µM (ANKK1; ANKK1): 100%
- remaining activity at 0.1 µM ([2]; ABL1(F317I)-nonphosphorylated): 100%
- remaining activity at 0.1 µM (RET; RET): 100%
- remaining activity at 0.1 µM (TAOK1; TAOK1): 100%
- remaining activity at 0.1 µM (RIOK3; RIOK3): 100%
- remaining activity at 0.1 µM (MET(Y1235D); MET(Y1235D)): 98%
- remaining activity at 0.1 µM ([3]; JAK1(JH1domain-catalytic)): 100%
- remaining activity at 0.1 µM (IGFIR; IGFIR): 100%
- remaining activity at 0.1 µM (EGFR(S752-I759del); EGFR(S752-I759del)): 100%
- remaining activity at 0.1 µM (PIK3CA(E545A); PIK3CA(E545A)): 89%
- remaining activity at 0.1 µM (PIK3CB; PIK3CB): 100%
- remaining activity at 0.1 µM (CSNK2A2; CSNK2A2): 100%
- remaining activity at 0.1 µM (MET(M1250T); MET(M1250T)): 100%
- remaining activity at 0.1 µM (LKB1; LKB1): 70%
- remaining activity at 0.1 µM (LATS1; LATS1): 100%
- remaining activity at 0.1 µM (MKNK2; MKNK2): 82%
- remaining activity at 0.1 µM (TNNI3K; TNNI3K): 100%

SMILES: CN(C[C@H](Cc1ccccc1)OP(=O)(O)O)C(=O)c1cncc(C#Cc2cnn(C(F)F)c2)c1 [Example 19, (S)-1-(5-((1-(difluoromethyl)-1H-pyrazol-4-yl)ethynyl)-N-methylnicotinamido)-3-phenylpropan-2-yl dihydrogen phosphate]
- remaining activity at 0.1 µM (SYK): 93%
- remaining activity at 0.1 µM (AMPK-alpha2): 100%
- remaining activity at 0.1 µM (DMPK): 100%
- remaining activity at 0.1 µM (EPHA5): 100%
- remaining activity at 0.1 µM (ERK5): 100%
- remaining activity at 0.1 µM (EPHA1): 100%
- remaining activity at 0.1 µM [1]: 100%
- remaining activity at 0.1 µM (SGK2): 93%
- remaining activity at 0.1 µM (SNARK): 99%
- remaining activity at 0.1 µM (ANKK1): 100%
- remaining activity at 0.1 µM [2]: 100%
- remaining activity at 0.1 µM (RET): 100%
- remaining activity at 0.1 µM (TAOK1): 100%
- remaining activity at 0.1 µM (RIOK3): 100%
- remaining activity at 0.1 µM (MET(Y1235D)): 99%
- remaining activity at 0.1 µM [3]: 100%
- remaining activity at 0.1 µM (IGFIR): 98%
- remaining activity at 0.1 µM (EGFR(S752-I759del)): 100%
- remaining activity at 0.1 µM (PIK3CA(E545A)): 94%
- remaining activity at 0.1 µM (PIK3CB): 95%
- remaining activity at 0.1 µM (CSNK2A2): 100%
- remaining activity at 0.1 µM (MET(M1250T)): 100%
- remaining activity at 0.1 µM (LKB1): 79%
- remaining activity at 0.1 µM (LATS1): 88%
- remaining activity at 0.1 µM (MKNK2): 79%
- remaining activity at 0.1 µM (TNNI3K): 100%
